According to publication PMC8834506, “Optimization of Thymidine Kinase-Based Safety Switch for Neural Cell Therapy” (Cells, 2022):
Read-outs that look alike come from different tables or passages of the source.

What was measured:
[1] = test system: hESC (HS420) expressing Ki67-SR39h; assay: ATP-based cell survival assay, nucleoside-induced cell death; settings: for EC50: Homo sapiens, 96 h
[2] = test system: sister chromatid exchange; design: method as in PMID 10719044; settings: at concentrations far below those impairing the proliferative activity; cited from earlier work
[3] = test system: hESC (HS420) expressing Ki67-SR39h D116E; assay: ATP-based cell survival assay, GCV-induced cell death; settings: Homo sapiens
Method: Our first generation of suicide gene was engineered with the wild type thymidine kinase (wt-TK). To improve the suicide gene efficacy, we investigated different TK variants; wt-TK, 30-GMK, SR39, SR39h, and SR39h D116E variants. These sequences were chosen based on the analysis of the literature investigating HSV1-TK variants, as well as a gain of function mutation in the CMV UL-97 kinase. The efficacy of each variants was determined as percentage of cell survival following prodrug treatment compared to non-treated hESC. For this purpose, we used the ATP-based assay, which measures cellular ATP content and thereby provides a reliable estimate of the number of healthy cells. The 50% effective concentration (EC50) was defined as the drug concentration required to reduce the percentage of cell survival by 50%. […] In order to optimize our system, we first replaced the wt-TK by the 30-GMK variant, which is a fusion between the 30 TK variant and guanylate kinase (GMK). Note that GMK is mediating the second phosphorylation step of antiviral nucleoside analogs. […] Microbial codon usage might not yield optimal results in human cells. We therefore adapted the SR39 sequence to a typical human codon usage. […]
Figure 1 EC50 of ganciclovir (GCV) in cell expressing different thymidine kinase (TK) variants. […] Number of surviving cells was monitored using bioluminescent ATP-based assay. […]

**Q.** For `Nc1nc(O)c2ncn(COC(CO)CO)c2n1` [GCV, ganciclovir], which “Cell death induction in SR39h-expressing cells (in words)” value ([1]; 96 h nucleoside exposure) is on record?
**A.** The value was “strong suicide inducers”.

**Q.** What about the “Fold more performant than SR39” value ([1]; GCV EC50, SR39h vs SR39) of the same molecule?
**A.** Its value is 10 fold.

**Q.** What about the EC50 ([1]; read-out: EC50 (cell survival), 96 h nucleoside exposure, SR39h under Ki67 promoter) of the same molecule?
**A.** Its EC50 is 0.2 nM.

**Q.** What about the EC50 ([1]; read-out: GCV EC50 in M, 96 h GCV exposure, Ki67-SR39h) of the same molecule?
**A.** Its EC50 is 0.19 nM.

**Q.** What about the “Induction of sister chromatid exchange” value [2] of the same molecule?
**A.** The value was “potent inducer of sister chromatid exchange”.

**Q.** And the EC50 ([3]; 96 h, read-out: GCV EC50 in M)?
**A.** Its EC50 is 0.56 nM.

**Q.** And the EC50 ([3]; 96 h GCV exposure, SR39h D116E variant, read-out: EC50 of GCV (cell survival))?
**A.** The EC50 was 0.6 nM.
